Measured values: ChEMBL document CHEMBL4308859, “Discovery of Novel Central Nervous System Penetrant Metabotropic Glutamate Receptor Subtype 2 (mGlu2) Negative Allosteric Modulators (NAMs) Based on Functionalized Pyrazolo[1,5- a]pyrimidine-5-carboxamide and Thieno[3,2- b]pyridine-5-carboxamide Cores” (J Med Chem, 2018)

Key:
[1] = molecular target: Metabotropic glutamate receptor 2 (Rattus norvegicus, UniProt P31421); experiment: (§1) Negative allosteric modulation of rat mGlu2R expressed in HEK293 cells co-expressing Galpha15 assessed as decrease in glutamate-induced calcium mobilization preincubated for 2.3 mins followed by glutamate addition and measured after 1.7 mins by Fluo-4-AM dye based fluorescence assay; assay type: functional, cell-based
[2] = molecular target: Metabotropic glutamate receptor 2 (Rattus norvegicus) (UniProt P31421); experiment: as §1, with “mobilization at 30 uM” for “mobilization”, “assay relative to control” for “assay”; assay type: functional, cell-based
[3] = Brain to plasma partition coefficient, Kp of the compound in Sprague-Dawley rat at 0.2 mg/kg, iv administered as cassette dose by LC-MS/MS analysis; assay type: ADME, organism-based; details: brain and plasma
[4] = Unbound brain to plasma ratio in Sprague-Dawley rat at 0.2 mg/kg, iv administered as cassette dose by LC-MS/MS analysis; assay type: ADME, organism-based; details: brain and plasma, read-out: K(p,uu,brain)
[5] = molecular target: T1, Metabotropic glutamate receptor 1 (Homo sapiens, UniProt Q13255); experiment: Negative allosteric modulation of mGlu1R (unknown origin)
[6] = molecular target: Metabotropic glutamate receptor 3 (Homo sapiens, UniProt Q14832); experiment: Negative allosteric modulation of mGlu3R (unknown origin)
[7] = molecular target: Metabotropic glutamate receptor 4 (Homo sapiens, UniProt Q14833); experiment: Negative allosteric modulation of mGlu4R (unknown origin)
[8] = molecular target: T2, Metabotropic glutamate receptor 5 (Homo sapiens, UniProt P41594); experiment: Negative allosteric modulation of mGlu5R (unknown origin)
[9] = molecular target: T3, Metabotropic glutamate receptor 6 (Homo sapiens, UniProt O15303); experiment: Negative allosteric modulation of mGlu6R (unknown origin)
[10] = molecular target: Metabotropic glutamate receptor 7 (Homo sapiens, UniProt Q14831); experiment: Negative allosteric modulation of mGlu7R (unknown origin)
[11] = molecular target: Metabotropic glutamate receptor 8 (Homo sapiens, UniProt O00222); experiment: Negative allosteric modulation of mGlu8R (unknown origin)
[12] = Plasma clearance in mouse; assay type: ADME, organism-based
[13] = Brain to plasma partition coefficient, Kp of the compound in rat; assay type: ADME; details: brain and plasma
[14] = Fraction unbound in rat plasma after 4 hrs by equilibrium dialysis method; assay type: ADME, cell-free
[15] = Fraction unbound in human plasma after 4 hrs by equilibrium dialysis method; assay type: ADME, cell-free
[16] = Fraction unbound in rat brain; assay type: ADME, tissue-based
[17] = Plasma clearance in Sprague-Dawley rat at 0.2 mg/kg, iv administered as cassette dose by LC-MS/MS analysis; assay type: ADME, organism-based
[18] = Half life in Sprague-Dawley rat at 0.2 mg/kg, iv administered as cassette dose by LC-MS/MS analysis; assay type: ADME, organism-based; details: Sprague-Dawley, in vivo
[19] = Volume of distribution at steady state in Sprague-Dawley rat at 0.2 mg/kg, iv administered as cassette dose by LC-MS/MS analysis; assay type: ADME, organism-based; details: in vivo, read-out: Vdss
[20] = Plasma clearance in Sprague-Dawley rat at 1 mg/kg, iv by LC-MS/MS analysis; assay type: ADME, organism-based
[21] = Half life in Sprague-Dawley rat at 1 mg/kg, iv by LC-MS/MS analysis; assay type: ADME, organism-based; details: in vivo
[22] = Volume of distribution at steady state in Sprague-Dawley rat at 1 mg/kg, iv by LC-MS/MS analysis; assay type: ADME, organism-based; details: in vivo, read-out: Vdss
[23] = molecular target: Metabotropic glutamate receptor 3 (Rattus norvegicus, UniProt P31422); experiment: Negative allosteric modulation of rat mGlu3R expressed in Trex cells co-expressing Galpha15 assessed as decrease in glutamate-induced calcium mobilization preincubated for 2.3 mins followed by glutamate addition and measured after 2.6 mins by Fluo-4-AM dye based fluorescence assay; assay type: functional, cell-based
[24] = molecular target: T1, Metabotropic glutamate receptor 1; experiment: Negative allosteric modulation of human mGlu1R expressed in Trex293 cells assessed as decrease in glutamate-induced calcium mobilization preincubated for 2.3 mins followed by glutamate addition and measured after 2.6 mins by Fluo-4-AM dye based fluorescence assay; assay type: functional, cell-based
[25] = molecular target: T2, Metabotropic glutamate receptor 5; experiment: Negative allosteric modulation of human mGlu5R expressed in Trex293 cells assessed as decrease in glutamate-induced calcium mobilization preincubated for 2.3 mins followed by glutamate addition and measured after 2.6 mins by Fluo-4-AM dye based fluorescence assay; assay type: functional, cell-based
[26] = molecular target: Metabotropic glutamate receptor 4 (Rattus norvegicus, UniProt P31423); experiment: Negative allosteric modulation of rat mGlu4 receptor expressed in HEK cells harboring GIRK assessed as reduction in glutamate-induced thallium flux preincubated for 2.3 mins followed by glutamate addition measured after 2.6 mins by BTC-AM-dye based fluorescence assay; assay type: cell-based
[27] = molecular target: T3, Metabotropic glutamate receptor 6; experiment: Negative allosteric modulation of human mGlu6 receptor expressed in HEK cells harboring GIRK assessed as reduction in glutamate-induced thallium flux preincubated for 2.3 mins followed by glutamate addition measured after 2.6 mins by BTC-AM-dye based fluorescence assay; assay type: cell-based
[28] = molecular target: Metabotropic glutamate receptor 7 (Rattus norvegicus, UniProt P35400); experiment: Negative allosteric modulation of rat mGlu7 receptor expressed in HEK cells harboring GIRK assessed as reduction in […]-induced thallium flux preincubated for 2.3 mins followed by […] addition measured after 2.6 mins by BTC-AM-dye based fluorescence assay; assay type: cell-based
[29] = molecular target: Metabotropic glutamate receptor 8 (Rattus norvegicus, UniProt P70579); experiment: Negative allosteric modulation of rat mGlu8 receptor expressed in HEK cells harboring GIRK assessed as reduction in glutamate-induced thallium flux preincubated for 2.3 mins followed by glutamate addition measured after 2.6 mins by BTC-AM-dye based fluorescence assay; assay type: cell-based
[30] = molecular target: Metabotropic glutamate receptor 2 (Homo sapiens, UniProt Q14416); experiment: Negative allosteric modulation of mGlu2R (unknown origin)

Sequence of Metabotropic glutamate receptor 2 (Rattus norvegicus, UniProt P31421) (P31421 whole entry): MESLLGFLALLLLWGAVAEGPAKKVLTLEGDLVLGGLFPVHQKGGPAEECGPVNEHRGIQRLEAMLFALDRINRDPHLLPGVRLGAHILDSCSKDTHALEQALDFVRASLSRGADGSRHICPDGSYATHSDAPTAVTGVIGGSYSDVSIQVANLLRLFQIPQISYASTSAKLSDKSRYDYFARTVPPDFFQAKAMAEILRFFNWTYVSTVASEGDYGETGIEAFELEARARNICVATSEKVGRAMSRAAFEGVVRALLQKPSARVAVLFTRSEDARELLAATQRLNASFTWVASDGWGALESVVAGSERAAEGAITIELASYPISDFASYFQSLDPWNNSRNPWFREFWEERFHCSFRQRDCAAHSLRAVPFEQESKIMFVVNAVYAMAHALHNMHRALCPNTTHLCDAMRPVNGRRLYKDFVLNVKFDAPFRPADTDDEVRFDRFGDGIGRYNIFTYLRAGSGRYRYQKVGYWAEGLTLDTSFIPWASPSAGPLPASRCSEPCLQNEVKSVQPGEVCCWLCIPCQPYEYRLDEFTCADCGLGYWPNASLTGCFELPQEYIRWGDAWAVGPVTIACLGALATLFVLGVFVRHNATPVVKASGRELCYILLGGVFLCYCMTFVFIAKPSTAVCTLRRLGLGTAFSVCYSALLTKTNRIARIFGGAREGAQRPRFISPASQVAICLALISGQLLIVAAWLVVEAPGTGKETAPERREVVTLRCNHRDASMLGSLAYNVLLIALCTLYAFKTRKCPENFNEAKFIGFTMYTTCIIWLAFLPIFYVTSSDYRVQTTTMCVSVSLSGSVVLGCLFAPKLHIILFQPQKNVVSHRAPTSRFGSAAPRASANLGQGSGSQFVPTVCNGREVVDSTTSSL
Sequence of Metabotropic glutamate receptor 2 (Rattus norvegicus) (P31421 19-872 limits assumed): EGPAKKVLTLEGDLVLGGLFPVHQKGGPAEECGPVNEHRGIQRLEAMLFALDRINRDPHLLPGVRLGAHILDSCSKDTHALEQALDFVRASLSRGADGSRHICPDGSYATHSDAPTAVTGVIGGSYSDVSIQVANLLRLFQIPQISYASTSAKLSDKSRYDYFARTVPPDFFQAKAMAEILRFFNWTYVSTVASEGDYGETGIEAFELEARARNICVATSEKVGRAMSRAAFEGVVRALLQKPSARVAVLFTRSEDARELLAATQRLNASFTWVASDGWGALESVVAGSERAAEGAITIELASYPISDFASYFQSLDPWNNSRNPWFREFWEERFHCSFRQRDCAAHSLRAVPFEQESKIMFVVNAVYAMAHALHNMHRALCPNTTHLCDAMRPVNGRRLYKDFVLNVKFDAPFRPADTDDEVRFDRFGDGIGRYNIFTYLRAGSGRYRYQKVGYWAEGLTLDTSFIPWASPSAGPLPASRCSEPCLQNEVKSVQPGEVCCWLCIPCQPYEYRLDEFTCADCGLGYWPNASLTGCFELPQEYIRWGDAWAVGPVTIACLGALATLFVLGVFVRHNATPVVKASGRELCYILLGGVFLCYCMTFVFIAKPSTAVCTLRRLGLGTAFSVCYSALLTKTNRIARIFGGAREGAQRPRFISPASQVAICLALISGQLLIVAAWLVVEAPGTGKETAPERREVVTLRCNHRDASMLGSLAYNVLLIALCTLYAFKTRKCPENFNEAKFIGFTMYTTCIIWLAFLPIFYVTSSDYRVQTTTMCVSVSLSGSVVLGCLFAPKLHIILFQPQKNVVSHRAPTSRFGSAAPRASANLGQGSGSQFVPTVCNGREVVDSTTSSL
T1 sequence (Q13255 whole entry): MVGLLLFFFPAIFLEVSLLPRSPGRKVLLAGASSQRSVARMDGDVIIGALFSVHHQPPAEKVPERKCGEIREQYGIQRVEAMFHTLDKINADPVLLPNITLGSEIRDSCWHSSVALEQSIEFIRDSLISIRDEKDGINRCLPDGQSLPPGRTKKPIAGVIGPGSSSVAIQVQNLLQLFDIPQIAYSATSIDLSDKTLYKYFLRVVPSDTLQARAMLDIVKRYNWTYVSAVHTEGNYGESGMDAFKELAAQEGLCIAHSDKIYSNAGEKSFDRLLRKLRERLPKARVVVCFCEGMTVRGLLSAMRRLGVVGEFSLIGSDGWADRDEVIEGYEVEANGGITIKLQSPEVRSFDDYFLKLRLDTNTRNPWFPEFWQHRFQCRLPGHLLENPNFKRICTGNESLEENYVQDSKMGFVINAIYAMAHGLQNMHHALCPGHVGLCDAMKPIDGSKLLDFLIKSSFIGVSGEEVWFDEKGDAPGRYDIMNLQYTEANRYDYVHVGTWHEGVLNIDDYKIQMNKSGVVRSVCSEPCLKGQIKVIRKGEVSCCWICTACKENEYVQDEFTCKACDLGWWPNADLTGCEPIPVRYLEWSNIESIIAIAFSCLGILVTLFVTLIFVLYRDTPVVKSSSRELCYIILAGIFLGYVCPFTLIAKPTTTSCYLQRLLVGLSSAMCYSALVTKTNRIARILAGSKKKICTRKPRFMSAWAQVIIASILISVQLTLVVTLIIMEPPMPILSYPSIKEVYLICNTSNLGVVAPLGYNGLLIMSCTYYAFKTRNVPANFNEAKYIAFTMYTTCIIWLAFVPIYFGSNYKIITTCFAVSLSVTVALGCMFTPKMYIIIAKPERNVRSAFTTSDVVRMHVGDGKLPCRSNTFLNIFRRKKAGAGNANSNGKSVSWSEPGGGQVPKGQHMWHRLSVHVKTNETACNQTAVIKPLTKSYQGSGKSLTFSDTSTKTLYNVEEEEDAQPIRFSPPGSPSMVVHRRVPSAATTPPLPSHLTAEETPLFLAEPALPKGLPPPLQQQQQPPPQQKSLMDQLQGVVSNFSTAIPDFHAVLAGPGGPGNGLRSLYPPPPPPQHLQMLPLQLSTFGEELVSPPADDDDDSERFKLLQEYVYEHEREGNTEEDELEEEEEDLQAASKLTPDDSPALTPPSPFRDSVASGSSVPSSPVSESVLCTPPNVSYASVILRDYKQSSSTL
Sequence of Metabotropic glutamate receptor 3 (Homo sapiens, UniProt Q14832) (Q14832 whole entry): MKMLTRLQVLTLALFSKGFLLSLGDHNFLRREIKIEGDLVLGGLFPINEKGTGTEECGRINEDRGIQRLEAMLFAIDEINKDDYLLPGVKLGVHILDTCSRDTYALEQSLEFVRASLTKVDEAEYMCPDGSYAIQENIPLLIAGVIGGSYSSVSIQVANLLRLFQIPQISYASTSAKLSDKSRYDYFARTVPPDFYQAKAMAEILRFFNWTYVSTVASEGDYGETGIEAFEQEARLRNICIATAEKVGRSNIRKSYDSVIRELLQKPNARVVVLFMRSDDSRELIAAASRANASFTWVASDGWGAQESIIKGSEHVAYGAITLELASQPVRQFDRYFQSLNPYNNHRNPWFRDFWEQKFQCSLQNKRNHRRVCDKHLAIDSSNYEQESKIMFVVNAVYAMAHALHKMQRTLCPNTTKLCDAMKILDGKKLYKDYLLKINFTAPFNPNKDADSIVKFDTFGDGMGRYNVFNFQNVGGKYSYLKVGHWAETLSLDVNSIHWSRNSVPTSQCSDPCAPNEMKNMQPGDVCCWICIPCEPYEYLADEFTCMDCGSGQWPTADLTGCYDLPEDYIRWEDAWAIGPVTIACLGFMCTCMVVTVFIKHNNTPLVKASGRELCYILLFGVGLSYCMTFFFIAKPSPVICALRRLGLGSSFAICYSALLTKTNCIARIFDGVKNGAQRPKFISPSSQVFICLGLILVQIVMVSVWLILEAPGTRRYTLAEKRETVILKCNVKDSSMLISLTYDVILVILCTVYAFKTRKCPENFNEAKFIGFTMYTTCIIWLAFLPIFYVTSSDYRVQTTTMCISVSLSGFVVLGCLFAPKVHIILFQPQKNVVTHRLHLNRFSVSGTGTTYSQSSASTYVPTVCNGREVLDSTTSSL
T3 sequence (O15303 whole entry): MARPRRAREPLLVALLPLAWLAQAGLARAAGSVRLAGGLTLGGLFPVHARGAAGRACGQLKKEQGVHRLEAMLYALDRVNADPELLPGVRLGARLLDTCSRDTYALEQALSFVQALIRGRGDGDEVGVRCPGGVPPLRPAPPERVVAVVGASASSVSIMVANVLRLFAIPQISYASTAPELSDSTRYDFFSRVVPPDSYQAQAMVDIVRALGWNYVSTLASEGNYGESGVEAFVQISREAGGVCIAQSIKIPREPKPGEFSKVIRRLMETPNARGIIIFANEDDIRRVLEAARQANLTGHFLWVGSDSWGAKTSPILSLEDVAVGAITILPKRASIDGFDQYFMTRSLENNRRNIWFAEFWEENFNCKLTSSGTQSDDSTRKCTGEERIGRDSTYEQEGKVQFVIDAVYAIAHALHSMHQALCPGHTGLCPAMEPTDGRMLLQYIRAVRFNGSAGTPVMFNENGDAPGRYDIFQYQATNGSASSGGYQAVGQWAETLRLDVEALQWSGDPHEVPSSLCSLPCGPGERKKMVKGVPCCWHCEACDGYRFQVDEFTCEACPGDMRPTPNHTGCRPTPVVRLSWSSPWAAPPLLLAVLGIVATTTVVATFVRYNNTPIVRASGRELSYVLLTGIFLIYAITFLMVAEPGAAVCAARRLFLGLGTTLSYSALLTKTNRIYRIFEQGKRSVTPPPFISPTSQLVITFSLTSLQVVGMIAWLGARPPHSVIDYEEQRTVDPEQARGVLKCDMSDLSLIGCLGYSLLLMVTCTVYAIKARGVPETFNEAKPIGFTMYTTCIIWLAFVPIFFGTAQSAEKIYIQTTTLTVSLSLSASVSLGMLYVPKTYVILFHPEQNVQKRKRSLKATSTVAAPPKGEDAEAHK

Cc1ccc(OCc2cc3nc(C(N)=O)cc(-c4ccc(F)cc4)c3s2)c(C)n1
IC50 [1]: 741 nM | Emax [2]: 3.3% | Kp [3]: > 2 | Kp uu [4]: < 0.4

Cn1ccc(COc2cnc(C(N)=O)cc2-c2ccc(F)cc2)n1
IC50 [5]: > 30000 nM | IC50 [6]: > 30000 nM | IC50 [7]: > 30000 nM | IC50 [8]: > 30000 nM | IC50 [9]: > 30000 nM | IC50 [10]: > 30000 nM | IC50 [11]: > 30000 nM | clearance [12]: 118 mL/min/kg | Kp [13]: 1.9

CN(Cc1cc2nc(C(N)=O)cc(-c3ccc(F)cc3)c2s1)C1COC1
IC50 [1]: 1410 nM | Emax [2]: 2.4%

[2H]C([2H])([2H])Oc1ccc(-c2cc(C(N)=O)nc3cc(COc4cnc(C)nc4)sc23)cc1
IC50 [1]: 447 nM

NC(=O)c1cc(-c2ccc(F)cc2)n2nc(CCc3ccncc3)cc2n1
IC50 [1]: 1050 nM | Emax [2]: 2.6%

NC(=O)c1cc(-c2ccc(F)cc2)n2nc(COc3ccc(C(F)(F)F)nc3)cc2n1
IC50 [1]: > 10000 nM

NC(=O)c1cc(-c2ccc(F)cc2)c2sc(CN3CCCCC3)cc2n1
IC50 [1]: 1740 nM | Emax [2]: 2.2%

NC(=O)c1cc(-c2ccc(F)cc2)c2sc(COc3ccc(C(F)(F)F)nc3)cc2n1
IC50 [1]: > 10000 nM

Cn1ccc(OCc2cc3nc(C(N)=O)cc(-c4ccc(F)cc4)c3s2)n1
IC50 [1]: 1510 nM | Emax [2]: 1.9%

COc1ccc(-c2cc(C(N)=O)nc3cc(COc4ccc(F)nc4)sc23)cc1
IC50 [1]: 2570 nM | Emax [2]: 7.2%

Cc1ncc(OCc2cc3nc(C(N)=O)cc(-c4ccc(F)cc4)c3s2)cn1
IC50 [1]: 589 nM | Emax [2]: 6.9%

NC(=O)c1cc(-c2ccc(F)cc2)n2nc(COc3ccnc(C(F)(F)F)c3)cc2n1
IC50 [1]: 794 nM | Emax [2]: 2.4% | fraction unbound at 4 h [14]: 0.03 | fraction unbound at 4 h [15]: 0.01 | fraction unbound [16]: 0.007 | Kp [3]: 4.04 | Kp uu [4]: 0.86 | clearance [17]: 10 mL/min/kg | half-life [18]: 4.28 h | Vd [19]: 3.31 L/kg | clearance [20]: 16.4 mL/min/kg | half-life [21]: 5.53 h | Vd [22]: 6.59 L/kg | IC50 [23]: > 30000 nM | IC50 [24]: > 30000 nM | IC50 [25]: > 30000 nM | IC50 [26]: > 30000 nM | IC50 [27]: > 30000 nM | IC50 [28]: > 30000 nM | IC50 [29]: > 30000 nM

NC(=O)c1cc(-c2ccc(F)cc2)c2sc(COc3cncnc3)cc2n1
IC50 [1]: 676 nM | Emax [2]: 26.2%

COc1ccc(OCc2cc3nc(C(N)=O)cc(-c4ccc(F)cc4)c3s2)cn1
IC50 [1]: 2000 nM | Emax [2]: 16.8%

COc1ccc(-c2cc(C(N)=O)nc3cc(COc4ccnc(C(F)(F)F)c4)nn23)c(F)c1
IC50 [1]: 148 nM | Emax [2]: 2.1% | fraction unbound at 4 h [14]: 0.03 to 0.12 | fraction unbound at 4 h [15]: 0.03 to 0.12 | fraction unbound [16]: 0.003 to 0.009 | Kp [3]: 2.5 to 2.7 | Kp uu [4]: 0.4 to 0.6

NC(=O)c1cc(-c2ccc(F)cc2F)n2nc(COc3ccnc(C(F)(F)F)c3)cc2n1
IC50 [1]: 102 nM | Emax [2]: 1.5% | fraction unbound at 4 h [14]: 0.03 to 0.12 | fraction unbound at 4 h [15]: 0.03 to 0.12 | fraction unbound [16]: 0.003 to 0.009 | Kp [3]: 2.5 to 2.7 | Kp uu [4]: 0.4 to 0.6

COc1ccc(-c2cc(C(N)=O)nc3cc(COc4cnc(C)nc4)sc23)c(F)c1
IC50 [1]: 427 nM | Emax [2]: 2.7%

C[C@@H]1CN(Cc2ccc3c(c2)c(=O)c(C(N)=O)cn3-c2ccc(F)cc2)C[C@H](C)O1
IC50 [30]: 207 nM | IC50 [6]: > 30000 nM | Kp [13]: 0.3

NC(=O)c1cc(-c2ccc(F)cc2)c2sc(CN3CCOCC3)cc2n1
IC50 [1]: 3890 nM | Emax [2]: 2.9%
